# Data as given in patent publication US20060046988A1, “Methoprene formulations for the control of tick infestations” (priority 2004, published 2006).
# Like-named read-outs stand apart in the source and are kept apart here.
# System: Rhipicephalus sanguineus
# Assay: In vitro immersion of engorged female ticks in (S)-methoprene: oviposition, egg mass weight, egg hatch
# Details: for Eggs Weight: Day 13; for Eggs Hatch (%): 48 days after exposure; for inhibition at 100 ppm / inhibition at 1000 ppm / inhibition at 10000 ppm / inhibition at 100000 ppm: Rhipicephalus sanguineus; for Egg Mass Per Tick / Total Egg Mass / Total Viable Egg Mass / Viable Egg Mass Per Tick / Reduction in Ticks Laying Eggs: replicates combined
# Procedure: The effect of (S)-methoprene on oviposition, egg mass weights, and egg eclosion was measured in adult females of a colonized strain of the brown dog tick, Rhipicephalus sanguineus. Approximately fifty R. sanguineus ticks were fed on twelve dogs each. Fully engorged females that dropped from the dogs over a period of two days were collected and combined into replicates. The following replicates were formed: Replicate A-50 ticks, Replicate B-40 ticks, and Replicate C-10 ticks. From each replicate A-C, 5 groups of equal numbers of ticks were formed, each group of ticks having similar combined body weights. Each of the 5 groups of ticks was randomly allocated to a treatment group.
# The treatment groups were: Treatment I-Control: acetone/water (40%: 60%); Treatment 2-100 ppm (S)-methoprene dissolved in acetone/water (40:60); Treatment 3-1,000 ppm (S)-methoprene dissolved in acetone/water (40:60); Treatment 4-10,000 ppm (S)-methoprene dissolved in acetone/water (40:60); and Treatment 5-100,000 ppm (S)-methoprene dissolved in acetone/water (40:60). Each group of ticks was immersed in the appropriate test solution for two mins, after which they were removed, dried on a paper towel and placed in a clean container. All ticks in all treatment groups were kept in an environmental chamber maintained at 26-27° Celsius and 65-87% relative humidity. The number of ticks that laid eggs and total egg mass weights for each replicate of each treatment group was recorded 13 days after exposure to treatment. Additionally, an estimation of percentage of egg hatching for each replicate in each treatment group was recorded 48 days after exposure to treatment.
# The number of ticks laying eggs, egg mass weights, percentage of eggs that hatched, and weight of viable eggs are provided in Table 1.
# [1] = 100 ppm, Replicate A, 10 ticks treated
# [2] = 100 ppm, Replicate B, 8 ticks treated
# [3] = 100 ppm, Replicate C, 2 ticks treated
# [4] = 1,000 ppm, Replicate A, 10 ticks treated
# [5] = 1,000 ppm, Replicate B, 8 ticks treated
# [6] = 1,000 ppm, Replicate C, 2 ticks treated
# [7] = 10,000 ppm, Replicate A, 10 ticks treated
# [8] = 10,000 ppm, Replicate B, 8 ticks treated
# [9] = 10,000 ppm, Replicate C, 2 ticks treated
# [10] = 100,000 ppm, Replicate A, 10 ticks treated
# [11] = 100,000 ppm, Replicate B, 8 ticks treated
# [12] = 100,000 ppm, Replicate C, 2 ticks treated
# [13] = Treatment 3: 1,000 ppm, compared to control
# [14] = Treatment 4: 10,000 ppm, compared to control
# [15] = Treatment 5: 100,000 ppm, compared to control
smiles,measurement,setting,value
COC(C)(C)CCC[C@H](C)C/C=C/C(C)=C/C(=O)OC(C)C [(S)-methoprene],Eggs Viable,[1],1.65 g
same,Number of Ticks Laying Eggs (Day 13),[1],10
same,Eggs Weight,[1],1.67 g
same,Eggs Hatch (%),"100 ppm, Replicate A",99%
same,Eggs Viable,[2],1.36 g
same,Number of Ticks Laying Eggs (Day 13),[2],8
same,Eggs Weight,[2],1.36 g
same,Eggs Hatch (%),"100 ppm, Replicate B",100%
same,Eggs Viable,[3],0.18 g
same,Number of Ticks Laying Eggs (Day 13),[3],2
same,Eggs Weight,[3],0.35 g
same,Eggs Hatch (%),"100 ppm, Replicate C",50%
same,Eggs Viable,[4],0.26 g
same,Number of Ticks Laying Eggs (Day 13),[4],9
same,Eggs Weight,[4],1.03 g
same,Eggs Hatch (%),"1,000 ppm, Replicate A",25%
same,Eggs Viable,[5],0.29 g
same,Number of Ticks Laying Eggs (Day 13),[5],8
same,Eggs Weight,[5],0.95 g
same,Eggs Hatch (%),"1,000 ppm, Replicate B",30%
same,Eggs Viable,[6],0.10 g
same,Number of Ticks Laying Eggs (Day 13),[6],2
same,Eggs Weight,[6],0.28 g
same,Eggs Hatch (%),"1,000 ppm, Replicate C",35%
same,Eggs Viable,[7],0 g
same,Number of Ticks Laying Eggs (Day 13),[7],10
same,Eggs Weight,[7],0.97 g
same,Eggs Hatch (%),"10,000 ppm, Replicate A",0%
same,Eggs Viable,[8],0 g
same,Number of Ticks Laying Eggs (Day 13),[8],8
same,Eggs Weight,[8],0.57 g
same,Eggs Hatch (%),"10,000 ppm, Replicate B",0%
same,Eggs Viable,[9],0 g
same,Number of Ticks Laying Eggs (Day 13),[9],2
same,Eggs Weight,[9],0.14 g
same,Eggs Hatch (%),"10,000 ppm, Replicate C",0%
same,Eggs Viable,[10],0 g
same,Number of Ticks Laying Eggs (Day 13),[10],8
same,Eggs Weight,[10],0.59 g
same,Eggs Hatch (%),"100,000 ppm, Replicate A",0%
same,Eggs Viable,[11],0 g
same,Number of Ticks Laying Eggs (Day 13),[11],8
same,Eggs Weight,[11],0.39 g
same,Eggs Hatch (%),"100,000 ppm, Replicate B",0%
same,Eggs Viable,[12],0 g
same,Number of Ticks Laying Eggs (Day 13),[12],2
same,Eggs Weight,[12],0.05 g
same,Eggs Hatch (%),"100,000 ppm, Replicate C",0%
same,inhibition at 100 ppm,"Treatment 2: 100 ppm, compared to control, read-out: Reduction Viable Egg Mass Per Tick",0%
same,inhibition at 100 ppm,"Treatment 2: 100 ppm, compared to control, read-out: Reduction in Viable Egg Mass",0%
same,inhibition at 1000 ppm,"Treatment 3: 1,000 ppm, compared to control, read-out: Reduction Viable Egg Mass Per Tick",78%
same,inhibition at 1000 ppm,"Treatment 3: 1,000 ppm, compared to control, read-out: Reduction in Viable Egg Mass",79%
same,inhibition at 10000 ppm,"Treatment 4: 10,000 ppm, compared to control, read-out: Reduction Viable Egg Mass Per Tick",100%
same,inhibition at 10000 ppm,"Treatment 4: 10,000 ppm, compared to control, read-out: Reduction in Viable Egg Mass",100%
same,inhibition at 100000 ppm,"Treatment 5: 100,000 ppm, compared to control, read-out: Reduction Viable Egg Mass Per Tick",100%
same,inhibition at 100000 ppm,"Treatment 5: 100,000 ppm, compared to control, read-out: Reduction in Viable Egg Mass",100%
same,Egg Mass Per Tick,Treatment 2: 100 ppm,0.169 g
same,Total Egg Mass,Treatment 2: 100 ppm,3.38 g
same,Total Viable Egg Mass,Treatment 2: 100 ppm,3.19 g
same,Viable Egg Mass Per Tick,Treatment 2: 100 ppm,0.160 g
same,Reduction in Ticks Laying Eggs,"Treatment 2: 100 ppm, compared to control",0%
same,Egg Mass Per Tick Reduction,[13],28%
same,Reduction of Total Egg Mass,[13],32%
same,Egg Mass Per Tick,"Treatment 3: 1,000 ppm",0.119 g
same,Total Egg Mass,"Treatment 3: 1,000 ppm",2.26 g
same,Total Viable Egg Mass,"Treatment 3: 1,000 ppm",0.65 g
same,Viable Egg Mass Per Tick,"Treatment 3: 1,000 ppm",0.034 g
same,Reduction in Ticks Laying Eggs,[13],5%
same,Egg Mass Per Tick Reduction,[14],49%
same,Reduction Viable Egg Mass Per Tick,[14],100%
same,Reduction of Total Egg Mass,[14],49%
same,Egg Mass Per Tick,"Treatment 4: 10,000 ppm",0.084 g
same,Total Egg Mass,"Treatment 4: 10,000 ppm",1.68 g
same,Total Viable Egg Mass,"Treatment 4: 10,000 ppm",0 g
same,Viable Egg Mass Per Tick,"Treatment 4: 10,000 ppm",0 g
same,Reduction in Ticks Laying Eggs,[14],0%
same,Egg Mass Per Tick Reduction,[15],65%
same,Reduction in Viable Egg Mass,[15],100%
same,Reduction of Total Egg Mass,[15],69%
same,Egg Mass Per Tick,"Treatment 5: 100,000 ppm",0.057 g
same,Total Egg Mass,"Treatment 5: 100,000 ppm",1.03 g
same,Total Viable Egg Mass,"Treatment 5: 100,000 ppm",0 g
same,Viable Egg Mass Per Tick,"Treatment 5: 100,000 ppm",0 g
same,Reduction in Ticks Laying Eggs,[15],10%
